# Measured values from US12161694B2, “Methods and compositions for regulating innate lymphoid cell inflammatory responses” (The Broad Institute, Inc., priority 2017, dated 2024).
# “Also recorded” adds a separate entry of the source. Where no end group is shown, it is not given here.
# System: ILCs sorted from the lungs of naive mice
# Assay: ILC in vitro culture: Il5/Il13 mRNA (qPCR) and IL-5/IL-13 in supernatant (LegendPlex)
# Format: cell-based, mouse
# Method: (§1) Fluorescence-activated cell sorting of innate lymphoid cells. After dissociation, single cell suspensions were incubated with CD90.2 MicroBeads (Miltenyi Biotec) on ice and enriched for CD90.2^+ cells by magnetic separation using LS columns according to the manufacturer's protocol. CD90.2^+ lung cells were then stained on ice with antibodies for sorting. ILCs were defined as 7AAD^− CD45^+ CD90.2^+ CD127^+ Lineage (CD11b, CD11c, CD19, NK1.1, CD3ε, CD4, CD8a, TCRβ, TCRγδ)^− cells and sorted on a BD FACS Aria (BD Biosciences).
# ILC in vitro culture. For in vitro experiments 5,000 ILCs/well were cultured in a 96 well round bottom plate with 20 ng/ml IL-7 (R&D Systems), 200 ng/ml IL-33 (BioLegend) or 200 ng/ml IL-25 (R&D Systems) with or without 1 μg/ml Neuromedin U (US Biological). In some cases purified CD90.2^+ lung cells were first labeled with CellTrace Violet (Thermo Fisher Scientific), then sorted as described above, and cultured for 3 days under the indicated conditions.
# (§2) Quantitative real-time PCR. RNA was isolated using RNeasy Plus Mini Kit (Qiagen) and reverse transcribed to cDNA with iScript cDNA Synthesis Kit (Bio-Rad). Gene expression was analyzed by quantitative real-time PCR on a ViiA7 System (Thermo Fisher Scientific) using TaqMan Fast Advanced Master Mix (Thermo Fisher Scientific) with the following primer/probe sets: IL-5 (Mm00439646_m1), IL-13 (Mm00434204_m1), IL-17RB (Mm00444709_m1), Nmur1 (Mm04207994 m1), Nmur2 (Mm00600704_m1), and β-Actin (Applied Biosystems). Expression values were calculated relative to β-Actin detected in the same sample by duplex qPCR.
# Cytokine quantification. Cytokine concentrations in BAL fluid, lung and supernatant of in vitro ILC cultures were analyzed by the LegendPlex Mouse Th Cytokine Panel (13-plex) (BioLegend) according to the manufacturer's instructions and analyzed on a FACS Calibur (BD Biosciences).
# as §1, with “protocol. CD90.2^−” for “protocol. CD90.2^+”, “(CD11b, CD 11c,” for “(CD11b, CD11c,”
# ILC in vitro culture. For in vitro experiments 5,000 ILCs/well were cultured in a 96 well round bottom plate with 20 ng/ml IL-7 (R&D Systems), 200 ng/ml IL-25 (R&D Systems) or 20 ng/ml, 2 ng/ml or 0.2 ng/ml IL-33 (BioLegend) with or without 1 μg/ml Neuromedin U (US Biological). In some cases purified CD90.2^+ lung cells were first labeled with CellTrace Violet (Thermo Fisher Scientific), then sorted as described above, and cultured for 3 days under the indicated conditions.
# as §2, with “Il5” for “IL-5”, “Il13” for “IL-13”, “Il17rb” for “IL-17RB”, “(Mm04207994_m1),” for “(Mm04207994 m1),”, “(Mm00600704_m1), Nmu (Mm00479868_m1)” for “(Mm00600704_m1),”, “Actb” for “β-Actin”
substance,measurement,setting,value
"Neuromedin U (FRVDEEFQSPFASQSRGYFLFRPRN-NH2; listed as Homo sapiens) [NMU, neuropeptide ligand of Nmur1 (US Biological)]","Il5 and Il13 levels, NMU in combination with IL-33","Example 1: ILCs in vitro, IL-33 200 ng/ml with NMU 1 μg/ml vs IL-33 alone",did not significantly alter; also recorded: neither amplifies
same,IL-33-induced IL-5 and IL-13 secretion with NMU,"Example 2: ILCs in vitro, IL-33 20, 2 or 0.2 ng/ml with NMU 1 μg/ml, LegendPlex",enhanced
same,Il5 and Il13 expression in ILCs cultured in vitro,"IL-7 20 ng/ml, IL-25 200 ng/ml, IL-33, NMU 1 μg/ml, mRNA by qPCR (protein by LegendPlex)",modest upregulation; also recorded: far lower than those observed in response to IL-25 and IL-33; also recorded: only mildly upregulated
same,increase of IL-5 and IL-13 protein levels in response to IL-25,"ILCs in vitro, IL-25 in conjunction with NMU vs IL-25 alone, LegendPlex",at least 8 fold
same,increase of Il5 and Il13 mRNA levels in response to IL-25,"ILCs in vitro, IL-25 in conjunction with NMU vs IL-25 alone, qPCR",at least 3.6 fold
